{"source": "ChEMBL document CHEMBL1157539", "about": "“Thousands of chemical starting points for antimalarial lead identification” (Nature, 2010)", "data": [{"test_system": "Plasmodium falciparum", "test": "(§1) GSK_TCMDC: Inhibition of Plasmodium falciparum 3D7 in whole erythrocytes, using parasite LDH activity as an index of growth.", "assay_type": "functional, organism-based", "conditions": "not given", "units": {"XC50": "nM"}, "values": [{"molecule": "COC(=O)c1sccc1NC(=S)NC1CCC(CN2CCC(c3c[nH]c4ccccc34)CC2)CC1", "note": "(stereo not drawn)", "XC50": 574}]}, {"test_system": "Plasmodium falciparum", "test": "as §1", "assay_type": "functional, organism-based", "conditions": "Plasmodium falciparum, 3D7", "units": {"XC50": "nM"}, "values": [{"molecule": "CCc1cn2c3c(cc(C(=O)N[C@@H](Cc4cc(F)cc(F)c4)[C@H](O)CNC4CC4)cc13)N(C)S(=O)(=O)CC2", "XC50": 119}, {"molecule": "Nc1nc(N)c2c(ccc3c2ccn3C2CCCCC2)n1", "XC50": 123}, {"molecule": "COc1ccc(C2CC(=O)C3=C(C2)NC(C)=C(C(=O)OC2CCCC2)C3c2cccc(O)c2)cc1", "note": "(stereo not drawn)", "XC50": 1010}, {"molecule": "CN1CC=C(c2c[nH]c3ccc(C(=O)c4nccs4)cc23)CC1", "XC50": 242}, {"molecule": "CC(C)c1cn2c3c(cc(C(=O)N[C@@H](Cc4ccccc4)[C@H](O)CNC4CCOCC4)cc13)N(C)S(=O)(=O)CC2", "XC50": 54.5}, {"molecule": "Nc1nc(N)c2c(ccc3[nH]c(-c4ccccc4Cl)nc32)n1", "XC50": 231}, {"molecule": "Cc1cc(C2CCN(CCCCNC(=O)c3ccc(NC(=O)c4ccc(Cl)cc4)cc3)CC2)c(C)cc1OC(C)C", "XC50": 744}, {"molecule": "COc1ccc(NC(=O)[C@H](Cc2ccccc2)Nc2cc(C)nc(NCCc3ccc(F)cc3)n2)cc1", "XC50": 1120}, {"molecule": "CC(Cc1ccc(OCCCCOc2ccccc2)cc1)NCCc1ccc(Oc2ccccc2)cc1", "note": "(stereo not drawn)", "XC50": 812}, {"molecule": "CCOC(=O)c1cc(Cl)ccc1OCCCON1C(=N)N=C(N)NC1(C)C", "XC50": 3.2}, {"molecule": "O=C(Nc1cccc(OCc2ccccc2)c1)c1ccc(CN2CCC(Cc3ccccc3)CC2)cc1", "XC50": 850}, {"molecule": "CC[C@H]1CN2CCc3cc(OC)c(OC)cc3[C@@H]2C[C@@H]1C[C@H]1NCCc2cc(OC)c(OC)cc21", "note": "[EMETINE]", "XC50": 214}, {"molecule": "CCCc1cc(Cc2cnc(N)nc2N)cc(CC)c1OC", "XC50": 821}, {"molecule": "COC(=O)c1sccc1NC(=S)NC1CCC(CN2CCC(c3c[nH]c4ccccc34)CC2)CC1", "note": "(stereo not drawn)", "XC50": 915}, {"molecule": "CCCCCC(NCCCC)c1ccc(OCCOc2ccc(C(CCCCC)NCCCC)cc2)cc1", "note": "(stereo not drawn)", "XC50": 1240}, {"molecule": "Cc1cnc(C(=O)Nc2ccc3c(c2)CCCN(Cc2c[nH]c4cnccc24)C3)cn1", "XC50": 1230}, {"molecule": "O=C(/C=C/c1ccc(Cl)c(Cl)c1)N1CCC(CN2CCC(c3nc4ccccc4n3CCCO)CC2)CC1", "XC50": 839}, {"molecule": "NCc1ccc(-c2ccccc2CNC2CCN(Cc3ccccc3)CC2)cc1", "XC50": 765}, {"molecule": "CCCCCCCN1CC[C@@H](CCCc2ccnc3ccc(OCCN4CCOCC4)cc23)[C@@H](CC)C1", "XC50": 909}, {"molecule": "CCc1cn2c3c(cc(C(=O)N[C@@H](Cc4ccccc4)[C@H](O)CNC4CCOCC4)cc13)N(CC(F)(F)F)S(=O)(=O)CC2", "XC50": 29.6}, {"molecule": "COc1ccccc1C(C)NCC(=O)Nc1cccc(C(=O)Nc2cccc(C(F)(F)F)c2)c1", "note": "(stereo not drawn)", "XC50": 1530}, {"molecule": "O=C(NCC1CN(Cc2ccc(N3CCCC3)o2)CCCO1)c1ccc2c(c1)OCO2", "note": "(stereo not drawn)", "XC50": 839}, {"molecule": "Cc1ccc(N2CCN(C(=O)c3cccc(-c4cncc5nc(-c6ccco6)n(C)c45)c3)CC2)nc1", "XC50": 596}, {"molecule": "CCCN(CCC)CCCN(CCCN(CCC)CCC)c1cc(C)nc(Nc2ccc3cc(Br)ccc3c2)n1", "XC50": 210}, {"molecule": "CC(C)c1cc2c(ccc3nc(N)nc(N)c32)o1", "XC50": 85.7}, {"molecule": "COc1c(C2CCN(CCN3CCC(NC(=O)c4ccc(-c5ccc(C(F)(F)F)cc5)cc4)CC3)CC2)ccc2c1CCCC2", "XC50": 1360}, {"molecule": "NCCCCNc1cc(-c2ccnc(Nc3cccc(Cl)c3)n2)ccn1", "XC50": 284}, {"molecule": "O=C(Nc1ccc(-c2nc3ccccc3[nH]2)cc1)c1ccc(N2CCCC2)c([N+](=O)[O-])c1", "XC50": 678}, {"molecule": "Cc1cccc2nc(-c3cccc(-c4ccc(NC(=O)Cc5c[nH]cn5)cc4)c3)[nH]c12", "XC50": 688}, {"molecule": "COc1cc2c(cc1OC)-c1cc(=Nc3c(C)cc(C)cc3C)n(C)c(=O)n1CC2", "XC50": 1110}, {"molecule": "COC(=O)c1ccc(CC(C)NCC(O)c2cccc(C(F)(F)F)c2)c(OC)c1", "note": "(stereo not drawn)", "XC50": 804}, {"molecule": "Cc1cc(Cl)c(S(=O)(=O)NC2CCCC2)cc1OCC(=O)NC1CCCCC1", "XC50": 385}, {"molecule": "COc1ccc(Cn2c(SCc3ccc(C)cc3)nc3cc(OC)c(OC)cc3c2=N)cc1Cl", "XC50": 977}, {"molecule": "Cc1cccc2nc(-c3ccc(-c4cccc(NC(=O)Nc5ccccc5)c4)cc3)[nH]c12", "XC50": 715}, {"molecule": "CCC[C@@H]([C@@H](CC1CCCCC1)C(=O)NC(C(=O)Nc1nccs1)C(CC)c1ccccc1)N(O)C=O", "note": "(stereo partly drawn)", "XC50": 689}, {"molecule": "Oc1ccc(CN2CCC(NCc3cccc(C(F)(F)F)c3)CC2)cc1", "XC50": 685}, {"molecule": "Cc1ccccc1C1CCN(C2CCC(NC(=O)/C=C/c3cccc(F)c3)CC2)CC1", "note": "(stereo not drawn)", "XC50": 1190}, {"molecule": "COc1cc2nccc(Nc3ccc4c(cnn4Cc4ccccc4F)c3)c2cc1OC", "XC50": 400}, {"molecule": "COc1ccc(Nc2ncc3c(-c4cccc(NC(=O)Cc5cccc(O)c5)c4)c[nH]c3n2)cc1OC", "XC50": 698}, {"molecule": "CCCCN1CC[C@@H](CCC(O)c2cc(OCCC)nc3ccc(OC)cc23)[C@@H](CC)C1", "note": "(stereo partly drawn)", "XC50": 356}, {"molecule": "Cc1c(Cl)ccc2sc(N3CCN(C(=O)c4ccc([N+](=O)[O-])o4)CC3)nc12", "XC50": 745}, {"molecule": "COc1c(Br)cc(Br)cc1-c1ccc(CN2C3CCCC2CCC3)[nH]1", "XC50": 1110}, {"molecule": "O=C(C=Cc1ccc(Cl)c(Cl)c1)NCCCCCN1CCC(CCCNS(=O)(=O)c2ccc(Br)cc2)CC1", "XC50": 1130}, {"molecule": "CNC(=O)c1nc(-c2ccccc2)[nH]c1NC(C)=O", "XC50": 152}, {"molecule": "COc1cc(C(=O)NCc2nn(CCN3CCC(N4CCCC4)CC3)cc2-c2ccc(Cl)c(Cl)c2)cc(OC)c1OC", "XC50": 774}, {"molecule": "CCN(CC)/C(=N/C(=N)NCc1cccc(Cl)c1)NCCCCCCN/C(=N\\C(=N)NCc1cccc(Cl)c1)N(CC)CC", "XC50": 206}, {"molecule": "CNC(=O)C1Cc2c([nH]c3cc(Br)ccc23)C2(CCN(CCc3ccccc3)CC2)N1", "note": "(stereo not drawn)", "XC50": 721}, {"molecule": "CCc1c(CCNCCCCCCNC(C)(C)Cc2ccc3c(c2CC)OCO3)ccc(OC)c1OC", "XC50": 934}, {"molecule": "COc1ccc(CN(C)CCOc2ccc(NC(=O)c3cccc4c(=O)cc(-c5ccccc5)[nH]c34)cc2)cc1OC", "XC50": 921}, {"molecule": "N#Cc1cccc(NC(=O)Nc2ccc(-c3cccc(-c4nc5cc(F)ccc5[nH]4)c3)cc2)c1", "XC50": 275}, {"molecule": "OC1(c2ccccc2)CCN(Cc2cccc(-c3c[nH]c4nc(NC5CCCC5)ncc34)c2)C1", "note": "(stereo not drawn)", "XC50": 914}, {"molecule": "Cc1ccc(C)c2sc(N(CCCn3ccnc3)C(=O)C=Cc3cccs3)nc12", "XC50": 1060}, {"molecule": "CCCNC(=O)C1CCN(C(c2ccccc2)c2ccc(Cl)c(Cl)c2)CC1", "note": "(stereo not drawn)", "XC50": 708}, {"molecule": "O=C(Nc1cccc(F)c1)N1CCC(CN2CCOC(c3ccccc3)(c3ccccc3)C2)CC1", "XC50": 198}, {"molecule": "COc1cc(-c2cnc(N)c(-c3nc4ccccc4[nH]3)c2)cc(OC)c1OC", "XC50": 191}, {"molecule": "Cc1ccnc(-n2c(C)cc(C=C3SC(=Nc4ccccc4)N(Cc4ccco4)C3=O)c2C)c1", "XC50": 237}, {"molecule": "CCCOc1cc(O)c(-c2[nH]nc(C)c2Oc2ccccc2)cc1CC", "XC50": 1070}, {"molecule": "CCC[C@@H]([C@@H](CC(C)C)C(=O)N[C@@H](CCCNc1nccc(C(F)(F)F)n1)C(=O)Nc1nccs1)N(O)C=O", "XC50": 373}, {"molecule": "O=C(/C=C/c1ccc(Cl)c(Cl)c1)NCCCCCN1CCCN(C(=O)Nc2ccc(Br)cc2)CC1", "XC50": 777}, {"molecule": "COc1ccc2nccc(NCC3(O)CCC(NCc4ccc5c(n4)NC(=O)CS5)CC3)c2n1", "note": "(stereo not drawn)", "XC50": 689}, {"molecule": "CN1CCN(CCCNCc2cccc(Nc3nccc(Nc4ccc(Oc5ccccc5)cc4)n3)c2)CC1", "XC50": 765}, {"molecule": "Cc1cccc2[nH]cc(C3CCN(CCC4CCN(C(=O)/C=C/c5ccc(Cl)c(Cl)c5)CC4)CC3)c12", "XC50": 1220}, {"molecule": "COc1ccc(C2C(C(=O)Nc3ccc4c(c3)OCO4)c3cc(OC)c(OC)cc3C(=O)N2C)cc1", "note": "(stereo not drawn)", "XC50": 1040}, {"molecule": "COCC(C)n1c(SC(C)C(=O)Nc2cc([N+](=O)[O-])ccc2Cl)nc2ccccc2c1=O", "note": "(stereo not drawn)", "XC50": 229}, {"molecule": "Cc1cc(NCCCOc2ccc(Cl)cc2)nc(NCc2ccccc2)n1", "XC50": 782}, {"molecule": "Oc1ccc2[nH]c(-c3cccc(F)c3)nc2c1CNCc1ccccc1", "XC50": 916}, {"molecule": "N#Cc1cnc2cc(-c3cnc(CNCCN4CCOCC4)s3)ccc2c1Nc1ccc(Oc2ccccc2)cc1", "XC50": 726}]}]}
